Assay results published in patent US20250197372A1 (priority 2020, published 2025).

Experiments:
[1] = molecular target: recombinant human GAA (acid alpha-glucosidase) (Homo sapiens, UniProt P10253); assay: Acid alpha-glucosidase (GAA) assay (4-methylumbelliferyl-alpha-D-pyranoside substrate, fluorescence); assay type: biochemical
Summary of the method: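 IC50 from 4-PL curve fit of percent inhibition, based on fluorescence (365/440 nm) of released methylumbelliferone relative to uninhibited enzyme. Compound dilutions and human GAA incubated 60 min, 37 °C, before 20 min substrate reaction at 37 °C, quenched at pH 10.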

[2] = molecular target: T1, recombinant human GBA (beta-glucocerebrosidase) (Homo sapiens, UniProt P04062); assay: Beta-glucocerebrosidase (GBA, glucosylceramidase) assay (4-methylumbelliferyl-beta-D-pyranoside substrate, fluorescence); assay type: biochemical
T1 sequence (P04062 40-536): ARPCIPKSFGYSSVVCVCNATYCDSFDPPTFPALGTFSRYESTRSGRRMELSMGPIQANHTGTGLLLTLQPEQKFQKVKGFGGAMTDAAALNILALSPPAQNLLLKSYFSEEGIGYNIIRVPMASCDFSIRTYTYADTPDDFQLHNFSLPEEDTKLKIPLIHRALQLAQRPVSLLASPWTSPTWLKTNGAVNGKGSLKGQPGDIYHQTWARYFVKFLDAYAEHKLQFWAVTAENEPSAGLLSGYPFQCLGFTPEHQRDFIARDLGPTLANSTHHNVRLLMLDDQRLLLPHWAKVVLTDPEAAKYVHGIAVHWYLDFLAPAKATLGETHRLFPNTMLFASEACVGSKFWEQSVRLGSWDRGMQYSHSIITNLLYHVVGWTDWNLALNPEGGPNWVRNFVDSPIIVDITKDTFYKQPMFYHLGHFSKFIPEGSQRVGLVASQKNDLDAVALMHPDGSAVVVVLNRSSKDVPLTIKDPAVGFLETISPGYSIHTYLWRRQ
Summary of the method: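 IC50 by four-parameter fit of percent inhibition, with product fluorescence (365/440 nm) read after a glycine/NaOH pH 10 stop. Compound and commercial recombinant human enzyme were incubated 60 min at 37 °C before a further 60 min at 37 °C with 4-methylumbelliferyl-beta-D-pyranoside substrate.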

O=[N+]([O-])c1cc(-c2ncccn2)ccc1NCc1cccc(CN2C[C@H](O)[C@@H](O)[C@H](O)[C@H]2CO)c1 [Compound 1090, (2R,3R,4R,5S)-2-(hydroxymethyl)-1-{[3-({[2-nitro-4-(pyrimidin-2-yl)phenyl]amino}methyl)phenyl]methyl}piperidine-3,4,5-triol]
IC50 [1]: 509 nM | IC50 [2]: 32400 nM

N#Cc1cc(NCc2cccc(CN3C[C@H](O)[C@@H](O)[C@H](O)[C@H]3CO)c2)cc(-c2cccnn2)c1 [Compound 1046, 3-(pyridazin-3-yl)-5-{[(3-{[(2R,3R,4R,5S)-3,4,5-trihydroxy-2-(hydroxymethyl)piperidin-1-yl]methyl}phenyl)methyl]amino}benzonitrile]
IC50 [1]: 1630 nM | IC50 [2]: 87300 nM

OC[C@@H]1[C@@H](O)[C@H](O)[C@@H](O)CN1Cc1ccc(CNc2ccc(-c3ncccn3)cc2)cc1 [Compound 1096, (2R,3R,4R,5S)-2-(hydroxymethyl)-1-{[4-({[4-(pyrimidin-2-yl)phenyl]amino}methyl)phenyl]methyl}piperidine-3,4,5-triol]
IC50 [1]: 259 nM | IC50 [2]: 17600 nM

O=[N+]([O-])c1cc(CN2CCCO2)ccc1NCCc1ccc(CCN2C[C@H](O)[C@@H](O)[C@H](O)[C@H]2CO)cc1 [Compound 1108, (2R,3R,4R,5S)-2-(hydroxymethyl)-1-(2-{4-[2-({2-nitro-4-[(1,2-oxazolidin-2-yl)methyl]phenyl}amino)ethyl]phenyl}ethyl)piperidine-3,4,5-triol]
IC50 [1]: 311 nM | IC50 [2]: 6000 nM

O=[N+]([O-])c1cc(-c2ccc[nH]2)ccc1NCc1ccc(CN2C[C@H](O)[C@@H](O)[C@H](O)[C@H]2CO)cc1 [Compound 1100, (2R,3R,4R,5S)-2-(hydroxymethyl)-1-{[4-({[2-nitro-4-(1H-pyrrol-2-yl)phenyl]amino}methyl)phenyl]methyl}piperidine-3,4,5-triol]
IC50 [1]: 161 nM | IC50 [2]: 41700 nM

CS(=O)(=O)c1cc(NCc2ccc(CN3C[C@H](O)[C@@H](O)[C@H](O)[C@H]3CO)cc2)cc(N2CCOCC2)c1 [Compound 1054, (2R,3R,4R,5S)-2-(hydroxymethyl)-1-{[4-({[3-methanesulfonyl-5-(morpholin-4-yl)phenyl]amino}methyl)phenyl]methyl}piperidine-3,4,5-triol]
IC50 [1]: 371 nM | IC50 [2]: > 100000 nM

CN(Cc1ccc(CN2C[C@H](O)[C@@H](O)[C@H](O)[C@H]2CO)cc1)c1cc(-c2cccnn2)cc(C2CC2)c1 [Compound 1001, (2R,3R,4R,5S)-1-{[4-({[3-cyclopropyl-5-(pyridazin-3-yl)phenyl](methyl)amino}methyl)phenyl]methyl}-2-(hydroxymethyl)piperidine-3,4,5-triol]
IC50 [1]: 91 nM | IC50 [2]: 99700 nM

O=[N+]([O-])c1cc(-c2cccnn2)ccc1NCc1cccc(CN2C[C@H](O)[C@@H](O)[C@H](O)[C@H]2CO)c1 [Compound 1089, (2R,3R,4R,5S)-2-(hydroxymethyl)-1-{[3-({[2-nitro-4-(pyridazin-3-yl)phenyl]amino}methyl)phenyl]methyl}piperidine-3,4,5-triol]
IC50 [1]: 572 nM | IC50 [2]: 97100 nM

COc1cc(NCCc2ccc(CCN3C[C@H](O)[C@@H](O)[C@H](O)[C@H]3CO)cc2)cc(-c2noc(C3CCC3)n2)c1 [Compound 1120, (2R,3R,4R,5S)-1-{2-[4-(2-{[3-(5-cyclobutyl-1,2,4-oxadiazol-3-yl)-5-methoxyphenyl]amino}ethyl)phenyl]ethyl}-2-(hydroxymethyl)piperidine-3,4,5-triol]
IC50 [1]: 581 nM | IC50 [2]: 13 nM

COc1cc(Br)cc(NCCn2cc(CCN3C[C@H](O)[C@@H](O)[C@H](O)[C@H]3CO)c3ccccc32)c1 [Compound 1075, (2R,3R,4R,5S)-1-[2-(1-{2-[(3-bromo-5-methoxyphenyl)amino]ethyl}-1H-indol-3-yl)ethyl]-2-(hydroxymethyl)piperidine-3,4,5-triol]
IC50 [1]: 3730 nM | IC50 [2]: 2520 nM

OC[C@@H]1[C@@H](O)[C@H](O)[C@@H](O)CN1Cc1ccc(CNc2ccc(-c3ccc[nH]3)cc2)cc1 [Compound 1094, (2R,3R,4R,5S)-2-(hydroxymethyl)-1-{[4-({[4-(1H-pyrrol-2-yl)phenyl]amino}methyl)phenyl]methyl}piperidine-3,4,5-triol]
IC50 [1]: 246 nM | IC50 [2]: 12300 nM

O=S(=O)(Nc1cc(NCCCCCCN2C[C@H](O)[C@@H](O)[C@H](O)[C@H]2CO)cc(-c2ncccn2)c1)C1CC1 [Compound 1114, N-[3-(pyrimidin-2-yl)-5-({6-[(2R,3R,4R,5S)-3,4,5-trihydroxy-2-(hydroxymethyl)piperidin-1-yl]hexyl}amino)phenyl]cyclopropanesulfonamide]
IC50 [1]: 16 nM | IC50 [2]: 5140 nM

OC[C@@H]1[C@@H](O)[C@H](O)[C@@H](O)CN1CCCCCCNc1cc(C2CC2)cc(N2CCOCC2)c1 [Compound 1006, (2R,3R,4R,5S)-1-(6-{[3-cyclopropyl-5-(morpholin-4-yl)phenyl]amino}hexyl)-2-(hydroxymethyl)piperidine-3,4,5-triol]
IC50 [1]: 124 nM | IC50 [2]: 618 nM

OC[C@@H]1[C@@H](O)[C@H](O)[C@@H](O)CN1Cc1cccc(CNc2ccc(C3=COCCO3)cc2)c1 [Compound 1066, (2R,3R,4R,5S)-1-{[3-({[4-(5,6-dihydro-1,4-dioxin-2-yl)phenyl]amino}methyl)phenyl]methyl}-2-(hydroxymethyl)piperidine-3,4,5-triol]
IC50 [1]: 1060 nM | IC50 [2]: > 100000 nM

[N-]=[N+]=Nc1ccc(NCCc2cc(CCN3C[C@H](O)[C@@H](O)[C@H](O)[C@H]3CO)cc(C3CCCCC3)c2)c([N+](=O)[O-])c1 [Compound 1115, (2R,3R,4R,5S)-1-[2-(3-{2-[(4-azido-2-nitrophenyl)amino]ethyl}-5-cyclohexylphenyl)ethyl]-2-(hydroxymethyl)piperidine-3,4,5-triol]
IC50 [1]: 5490 nM | IC50 [2]: 407 nM

OC[C@@H]1[C@@H](O)[C@H](O)[C@@H](O)CN1Cc1cccc(CNc2ccc(-c3cccnn3)cc2)c1 [Compound 1083, (2R,3R,4R,5S)-2-(hydroxymethyl)-1-{[3-({[4-(pyridazin-3-yl)phenyl]amino}methyl)phenyl]methyl}piperidine-3,4,5-triol]
IC50 [1]: 1950 nM | IC50 [2]: > 100000 nM

OC[C@@H]1[C@@H](O)[C@H](O)[C@@H](O)CN1Cc1cccc(CNc2ccc(-c3ccc[nH]3)cc2)c1 [Compound 1082, (2R,3R,4R,5S)-2-(hydroxymethyl)-1-{[3-({[4-(1H-pyrrol-2-yl)phenyl]amino}methyl)phenyl]methyl}piperidine-3,4,5-triol]
IC50 [1]: 872 nM | IC50 [2]: 13800 nM

O=[N+]([O-])c1cc(-c2cccnn2)ccc1NCCc1ccc(CCN2C[C@H](O)[C@@H](O)[C@H](O)[C@H]2CO)cc1 [Compound 1109, (2R,3R,4R,5S)-2-(hydroxymethyl)-1-{2-[4-(2-{[2-nitro-4-(pyridazin-3-yl)phenyl]amino}ethyl)phenyl]ethyl}piperidine-3,4,5-triol]
IC50 [1]: 3 nM | IC50 [2]: 6550 nM

OC[C@@H]1[C@@H](O)[C@H](O)[C@@H](O)CN1CCc1ccc(CCNc2cc(Cl)cc(-c3noc(C4CCC4)n3)c2)cc1 [Compound 1122, (2R,3R,4R,5S)-1-{2-[4-(2-{[3-chloro-5-(5-cyclobutyl-1,2,4-oxadiazol-3-yl)phenyl]amino}ethyl)phenyl]ethyl}-2-(hydroxymethyl)piperidine-3,4,5-triol]
IC50 [1]: 558 nM | IC50 [2]: 6 nM

N#Cc1cc(NCc2ccc(CN3C[C@H](O)[C@@H](O)[C@H](O)[C@H]3CO)cc2)cc(-c2ncccn2)c1 [Compound 1065, 3-(pyrimidin-2-yl)-5-{[(4-{[(2R,3R,4R,5S)-3,4,5-trihydroxy-2-(hydroxymethyl)piperidin-1-yl]methyl}phenyl)methyl]amino}-benzonitrile]
IC50 [1]: 90 nM | IC50 [2]: 32100 nM

Cc1cc(NCc2ccc(CN3C[C@H](O)[C@@H](O)[C@H](O)[C@H]3CO)cc2)cc(-c2ncccn2)c1 [Compound 1053, (2R,3R,4R,5S)-2-(hydroxymethyl)-1-{[4-({[3-methyl-5-(pyrimidin-2-yl)phenyl]amino}methyl)phenyl]methyl}piperidine-3,4,5-triol]
IC50 [1]: 118 nM | IC50 [2]: > 100000 nM

N#Cc1cc(NCc2ccc(CN3C[C@H](O)[C@@H](O)[C@H](O)[C@H]3CO)cc2)cc(C2=COCCO2)c1 [Compound 1062, 3-(5,6-dihydro-1,4-dioxin-2-yl)-5-{[(4-{[(2R,3R,4R,5S)-3,4,5-trihydroxy-2-(hydroxymethyl)piperidin-1-yl]methyl}phenyl)-methyl]amino}benzonitrile]
IC50 [1]: 68 nM | IC50 [2]: 35500 nM

O=[N+]([O-])c1cc(C2=COCCO2)ccc1NCc1cccc(CN2C[C@H](O)[C@@H](O)[C@H](O)[C@H]2CO)c1 [Compound 1087, (2R,3R,4R,5S)-1-{[3-({[4-(5,6-dihydro-1,4-dioxin-2-yl)-2-nitro-phenyl]amino}methyl)phenyl]methyl}-2-(hydroxymethyl)piperidine-3,4,5-triol]
IC50 [1]: 554 nM | IC50 [2]: > 100000 nM
